Test results as given in PubChem BioAssay AID588838 (Broad Institute, 2011).

System: P. falciparum Dd2 in RBCs, SYBR green growth
Experiment: antimalarial activity against Dd2 parasites – Dd2 strain, red blood cells, dry powder, PfHsp90 inhibitor project, dose response (AID 588838)

First: Cc1ccc(OCc2n[nH]c(=S)n2C2CCCCC2)cc1
Second: O=S(=O)(NC1CCCCCC1)c1ccc(Br)s1
The AC50 of the first is 3.7-fold higher: 60.6 µM for the first, 16.3 µM for the second.

`O=S(=O)(NC1CC2CCC1C2)c1ccc(Cl)cc1` (stereo unspecified) and `O=S(=O)(/C=C/c1ccccc1)NC1CCCCCCC1` are within 1.5-fold of each other in AC50: 98.5 µM for the first, 66.1 µM for the second.

`O=C(CSCC(=O)N1CCCCC1)Nc1nc(-c2ccc(Cl)s2)cs1` and `COc1ccc2c(c1)C=C(C(=O)NCc1ccc(Cl)cc1)CO2` are within 1.5-fold of each other in AC50: 40 µM for the first, 43.9 µM for the second.
